Results on 1 molecule are retold here after patent publication US10463590B1, “Antiplaque and dental health oral formulation” (priority 2018, dated 2019).

Holding throughout (type): cell-based
For assay [1], the system named is Streptococcus mutans and Streptococcus sorbinus. The assay is described as follows: Bactericidal effect, broth macro-dilution combined with plating assay after 24 h. The following applies: 10 μg/ml amoxicillin (FIG. 7B). The method, then: (§1) Two oral Streptococcus species, i.e., Streptococcus mutans AU159 strain and Streptococcus sorbinus SL1 strain, obtained from the American Type Culture Collection (Manassas, Va.), were tested in their two morphological forms: cocci planktonic form and biofilm. The stocks of both species were cultured in commonly used conditions, i.e., BHI broth (Remel, San Diego, Calif.) without antibiotics at 37° C. with 5% CO2, in sterile two-position cap 5 ml polypropylene test tubes.
The plates were then incubated at 37° C. with 5% CO2 and bacterial re-growth was assessed after 24 h. The entire experiment was repeated three times for each strain. Control cultures were treated with DMSO (i.e., 0.1-0.4% v/v) alone or amoxicillin (i.e. 10 μg/ml).

Assay [2] has as its system pre-existing biofilm of Streptococcus mutans and Streptococcus sorbinus. The assay is described as follows: Pre-formed biofilm killing (biocidal) effect, alamar Blue assay after 24 h. To be noted: 500 μg/ml amoxicillin (FIG. 7E). The method, then:
as §1
Qualitative and quantitative efficacy of the test mix against biofilm of Streptococcus mutans and Streptococcus sorbinus was evaluated by the commonly used crystal violet (CV) staining method supported by alamarBlue staining assay (where resazurin, a non-fluorescent indicator dye, is converted to bright red-fluorescent resorufin via the reduction reactions of metabolically active cells and the amount of fluorescence produced is proportional to the number of living cells) for evaluating cellular health, according to guidance of American Society for Microbiology and manufacturer's protocol to establish MBEC (Minimal Biofilm Eradication Concentration) and MBBC (Minimal Biofilm Biocidal Concentration) values. Briefly, 1×10^7 CFU/ml from homogeneous bacterial culture in BHI broth containing 1% sucrose, as a standard approach, was inoculated into saliva-coated 96-well plates and supplemented with the test mix. […]

In assay [3] the test system is biofilm of Streptococcus mutans and Streptococcus sorbinus. The assay is described as follows: Preventive effect on biofilm formation, crystal violet staining assay after 24 h. The following applies: 10 μg/ml amoxicillin (FIG. 7C). As for the experimental part:
as §1
Preventive effect of the test mix against biofilm of Streptococcus mutans and Streptococcus sorbinus was evaluated by the commonly used crystal violet (CV) staining method, according to guidance of American Society for Microbiology to establish MBFC (Minimal Biofilm Formation Concentration) value. Briefly, 1×10^7 CFU/ml from homogeneous bacterial culture in BHI broth containing 1% sucrose, as a standard approach, was inoculated into saliva-coated 96-well plates and supplemented with the test mix. Control wells were treated with DMSO (i.e., 0.1-0.4% v/v) alone or amoxicillin (i.e., 10 μg/ml). All plates were then incubated at 37° C. with 5% CO2 for 24 h. […] The biofilms were carefully washed three times with 1×PBS (phosphate-buffered saline), and 200 μl of methanol was added to each well to extract a dye which was measured at 595 nm using a spectrophotometer (Molecular Device, Spectra Max 340). […]

Assay [4] relates to Streptococcus mutans and Streptococcus sorbinus. The assay is described as follows: Bacteriostatic effect, broth macro-dilution assay (OD600) after 24 h. The following applies: 10 μg/ml amoxicillin (FIG. 7A). As for the experimental part:
as §1
Growth inhibition of Streptococcus mutans and Streptococcus sorbinus was tested using standard macro-dilution method according to guidance of American Society for Microbiology to establish MIC (Minimal Inhibitory Concentration) value. Briefly, sterile 3 ml test two-position capped tubes containing 1 ml BHI broth, supplemented with the test mix was inoculated with 1×10^7 CFU/ml of the homogenous bacterial suspension. The tubes were then incubated at 37° C. with 5% CO2 and growth inhibition as a decrease in the optical density (OD600) was measured after 24 h. The entire experiment was repeated three times for each strain. Control cultures were treated with DMSO (i.e., 0.1-0.4% v/v) alone or amoxicillin (i.e. 10 μg/ml).

Consider `CC1(C)S[C@@H]2[C@H](NC(=O)[C@H](N)c3ccc(O)cc3)C(=O)N2[C@H]1C(=O)O` [amoxicillin], for which, in assay [1], the bactericidal effect turned out to be 100%. For the same molecule, in assay [2], the “biocidal effect on pre-existing biofilm” value is recorded as “approximately 20%”. For the same molecule, in assay [3], the “preventive effect on biofilm formation” value is “approximately 99%”. Also, in assay [4], the bacteriostatic effect came out at 100%.
